Experimental data: patent US9045493B2, “Furo[3,2-b]- and thieno[3,2-b]pyridin derivatives” (Merck Patent GmbH, priority 2012, dated 2015)

Legend:
phospho-IRF3 @ Ser 386 = assay: Cell test: dose response inhibition of phospho-IRF3 @ Ser 386 in MDA-MB-468 cells; assay type: cell-based; conditions: Homo sapiens, Poly(I:C) stimulation, read-out: IC50 (reference inhibitor, phospho-IRF3 cell test)
Text: Dose Response Inhibition of Phospho-IRF3 @ Ser 386 Cell/MDAMB468/INH/PHOS/IMAG/pIRF3
This assay has been devised in order to assess the efficacy/potency of TBK1/IKKε inhibitor compounds based on the immunocytochemical detection of nuclear localised phospho-IRF3, a target directly downstream of TBK1.
Treatment with Polyinosine-polycytidylic acid (poly(I:C), a synthetic analog of doublestranded RNA (dsRNA), a molecular pattern associated with viral infection which is recognized by Toll-like receptor 3 (TLR3) is used to induce TBK1/IKKe activity and IRF3 phosphorylation at Ser386.
• Day 1: MDA-MB-468 cells are detached with HyQ-Tase, counted, and seeded into a 384-well clear bottom TC-surface plate at density of 10,000 cells per well in a total volume of 35 ul complete medium. Alternatively cells are directly seeded from frozen vials. • Day 2: Cells are pre-treated with inhibitor compounds for 1 h prior to Poly(I:C) stimulation. After 2 h of incubation with Poly(I:C), cells are fixed in (para)formaldehyde (PFA) and permeabilized with methanol (MeOH). The cells are then blocked and incubated with an anti-pIRF3 antibody at 4° C. overnight. • Day 3: The primary antibody is washed off, an AlexaFluor488-conjugated secondary is added, cells are counterstained with propidium iodide followed by image acquisition on IMX Ultra high content reader.

[1] = target: T1, TANK binding kinase (TBK1) (Homo sapiens, UniProt Q9UHD2); assay: TBK1 enzyme assay (384-well Flashplate kinase assay); assay type: biochemical; conditions: 10 μM ATP, 120 Min at 30° C.
T1 sequence (Q9UHD2 1-729): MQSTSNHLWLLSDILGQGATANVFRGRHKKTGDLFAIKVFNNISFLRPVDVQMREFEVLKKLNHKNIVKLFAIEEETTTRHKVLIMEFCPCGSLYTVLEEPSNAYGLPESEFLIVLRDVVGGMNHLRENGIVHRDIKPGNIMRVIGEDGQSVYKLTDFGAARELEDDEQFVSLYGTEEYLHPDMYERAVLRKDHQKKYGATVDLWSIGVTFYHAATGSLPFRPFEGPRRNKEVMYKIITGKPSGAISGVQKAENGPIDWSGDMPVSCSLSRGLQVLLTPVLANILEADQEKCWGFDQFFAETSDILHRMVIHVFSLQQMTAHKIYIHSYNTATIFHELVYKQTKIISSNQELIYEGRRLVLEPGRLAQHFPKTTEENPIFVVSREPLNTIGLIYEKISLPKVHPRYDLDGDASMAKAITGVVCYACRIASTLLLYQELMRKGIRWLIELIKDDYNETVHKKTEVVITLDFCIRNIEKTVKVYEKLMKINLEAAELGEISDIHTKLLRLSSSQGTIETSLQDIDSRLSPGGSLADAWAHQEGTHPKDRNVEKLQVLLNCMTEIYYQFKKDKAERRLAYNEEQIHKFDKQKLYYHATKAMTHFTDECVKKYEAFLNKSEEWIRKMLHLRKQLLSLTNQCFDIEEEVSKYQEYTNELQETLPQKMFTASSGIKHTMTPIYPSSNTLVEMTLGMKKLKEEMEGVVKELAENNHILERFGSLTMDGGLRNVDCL
Outline: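 Radiometric Flashplate assay: 0.6 nM TBK1, 800 nM biotinylated MELK-derived peptide and 10 μM ATP with 33P-ATP, 120 min at 30 °C in MOPS/Mg-acetate buffer pH 7.5. Stopped with EDTA; nonspecific signal defined with 100 nM staurosporine; IC50 from counted radioactivity.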

IKKε = target: T2, IKKε (Homo sapiens, UniProt Q14164); assay: IKKε kinase assay (384-well Flashplate); assay type: biochemical; conditions: 10 μM ATP, 2 hours at 30° C.; read-out: IKKε enzyme assay IC50
T2 sequence (Q14164 1-716): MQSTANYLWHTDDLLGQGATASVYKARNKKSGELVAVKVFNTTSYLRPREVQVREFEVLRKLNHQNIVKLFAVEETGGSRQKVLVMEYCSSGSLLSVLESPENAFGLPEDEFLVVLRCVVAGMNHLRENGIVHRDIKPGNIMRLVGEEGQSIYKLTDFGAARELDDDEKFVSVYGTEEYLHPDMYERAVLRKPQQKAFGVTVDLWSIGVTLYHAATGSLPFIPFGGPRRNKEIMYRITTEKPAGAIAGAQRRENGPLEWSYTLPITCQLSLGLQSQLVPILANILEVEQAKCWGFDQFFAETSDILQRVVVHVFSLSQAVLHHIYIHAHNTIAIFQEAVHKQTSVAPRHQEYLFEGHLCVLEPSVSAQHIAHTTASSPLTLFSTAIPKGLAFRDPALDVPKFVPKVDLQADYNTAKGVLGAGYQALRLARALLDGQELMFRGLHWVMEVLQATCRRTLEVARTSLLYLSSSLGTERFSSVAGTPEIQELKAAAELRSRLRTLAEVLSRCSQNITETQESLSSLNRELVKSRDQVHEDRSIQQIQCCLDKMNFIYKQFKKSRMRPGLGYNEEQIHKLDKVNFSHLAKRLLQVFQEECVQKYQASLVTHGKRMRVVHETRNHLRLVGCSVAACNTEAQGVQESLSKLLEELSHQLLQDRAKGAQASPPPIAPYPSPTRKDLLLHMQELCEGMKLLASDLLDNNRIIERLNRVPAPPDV
Outline: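 1 nM IKKε with 800 nM biotinylated IκBα(19-42) peptide and 10 μM ATP spiked with ^33P-ATP, 2 h at 30 °C in MOPS buffer pH 7.5. EDTA stop, Flashplate capture, washes, then radioactivity counted; IC50 derived.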

| Compound | IC50 (phospho-IRF3 @ Ser 386) [nM] | IC50 [1] [nM] | IC50 (IKKε) [nM] |
| --- | --- | --- | --- |
| O=C(NCCCNc1nc(Nc2cccc(NC(=O)N3CCCC3)c2)ncc1I)c1cccs1 [BX-795] | 200 to 800 | – | – |
| COc1cc(-c2cc3nccc(-c4ccc(OC5CCOCC5)c(C#N)c4)c3o2)ccc1C(=O)NCCN1CCC(F)(F)CC1 [Compound A90] | – | < 300 | < 300 |
| COc1cc(-c2cc3nccc(-c4ccc(OC5CCOCC5)c(C#N)c4)c3o2)ccc1C(=O)N1CCNC(=O)CC1 [Compound A91] | – | < 300 | < 300 |
| COc1cc(-c2cc3nccc(-c4ccc(OC5CCOCC5)c(C#N)c4)c3o2)ccc1C(=O)N1CC[C@H](O)C1 [Compound A92] | – | < 300 | < 300 |
| COc1cc(-c2cc3nccc(-c4ccc(OC5CCOCC5)c(C#N)c4)c3o2)ccc1C(=O)NCC(N)=O [Compound A93] | – | < 300 | < 300 |
| COc1cc(-c2cc3nccc(-c4ccc(OC5CCOCC5)c(C#N)c4)c3o2)ccc1C(=O)N[C@H]1CCCNC1 [Compound A94] | – | < 300 | < 300 |
| CN(CCO)C(=O)c1ccc(-c2cc3nccc(-c4ccc(OC5CCOC5)c(C#N)c4)c3s2)cc1 (stereo not shown) [Compound A95] | – | < 300 | < 300 |
| N#Cc1cc(-c2ccnc3cc(-c4cnn(C5CCNCC5)c4)sc23)ccc1OC1CCOCC1 [Compound A96] | – | < 300 | < 300 |
| N#Cc1cc(-c2ccnc3cc(-c4cnn(C5CCN(CCO)CC5)c4)sc23)ccc1OC1CCOCC1 [Compound A97] | – | < 300 | < 300 |
| COc1cc(-c2cc3nccc(-c4ccc(OC5CCOCC5)c(C#N)c4)c3o2)ccc1C(=O)N1CC[C@@H](O)C1 [Compound A98] | – | < 300 | < 300 |
| COc1cc(-c2cc3nccc(-c4ccc(OC5CCOCC5)c(C#N)c4)c3o2)ccc1C(=O)NC1CCN(C)CC1 [Compound A99] | – | < 300 | < 300 |
| COc1cc(-c2cc3nccc(-c4ccc(OC5CCOC5)c(C#N)c4)c3s2)ccc1C(=O)N1CCNCC1 (stereo not shown) [Compound A100] | – | < 300 | < 300 |
| COc1cc(-c2cc3nccc(-c4ccc(OC5CCOCC5)c(C#N)c4)c3o2)ccc1C(=O)N1CCC(O)CC1 [Compound A101] | – | < 300 | < 300 |
| COc1cc(-c2cc3nccc(-c4ccc(OC5CCOCC5)c(C#N)c4)c3o2)ccc1C(=O)N(C)C1CCOCC1 [Compound A102] | – | < 300 | < 300 |
| COc1cc(-c2cc3nccc(-c4ccc(OC5CCOCC5)c(C#N)c4)c3o2)ccc1C(=O)N1CCOC(CCO)C1 (stereo not shown) [Compound A103] | – | < 300 | < 300 |
| COc1cc(-c2cc3nccc(-c4ccc(OC5CCOCC5)c(C#N)c4)c3o2)ccc1C(=O)N1CCOCC1 [Compound A104] | – | < 300 | < 300 |

| Compound | IC50 (phospho-IRF3 @ Ser 386) [nM] | IC50 [1] [nM] | IC50 (IKKε) [nM] |
| --- | --- | --- | --- |
| COc1cc(-c2cc3nccc(-c4ccc(OC5CCOCC5)c(C#N)c4)c3o2)ccc1C(=O)NC1CCOCC1 [Compound A105] | – | < 300 | < 300 |
| COc1cc(-c2cc3nccc(-c4ccc(OC5CCOCC5)c(C#N)c4)c3o2)ccc1C(=O)N[C@@H]1CCCNC1 [Compound A106] | – | < 300 | < 300 |
| CN(CCO)C(=O)c1ccc(-c2cc3nccc(-c4ccc(OC5CCOCC5)c(C#N)c4)c3o2)c(F)c1 [Compound A107] | – | < 300 | < 300 |
| N#Cc1cc(-c2ccnc3cc(-c4cnn(CCO)c4)sc23)ccc1OC1CCOCC1 [Compound A108] | – | < 300 | < 300 |
| COc1cc(-c2cc3nccc(-c4ccc(OC5CCOCC5)c(C#N)c4)c3o2)ccc1C(=O)N1CCNC(=O)C1 [Compound A109] | – | < 300 | < 300 |
| N#Cc1cc(-c2ccnc3cc(-c4ccc(C(=O)N5CCNCC5)cc4F)oc23)ccc1OC1CCOCC1 [Compound A111] | – | < 300 | < 300 |
| N#Cc1cc(-c2ccnc3cc(-c4ccc(C(=O)N5CCNC(=O)CC5)cc4F)oc23)ccc1OC1CCOCC1 [Compound A112] | – | < 300 | < 300 |
| N#Cc1cc(-c2ccnc3cc(-c4ccc(C(=O)N5CCC(O)CC5)cc4F)oc23)ccc1OC1CCOCC1 [Compound A113] | – | < 300 | < 300 |
| N#Cc1cc(-c2ccnc3cc(-c4ccc(C(=O)N5CCOCC5)cc4F)oc23)ccc1OC1CCOCC1 [Compound A114] | – | < 300 | < 300 |
| COc1cc(C(=O)N(C)CCO)ccc1-c1cc2nccc(-c3ccc(OC4CCOCC4)c(C#N)c3)c2o1 [Compound A115] | – | < 300 | < 300 |
| COc1cc(C(=O)N2CCC(O)CC2)ccc1-c1cc2nccc(-c3ccc(OC4CCOCC4)c(C#N)c3)c2o1 [Compound A116] | – | < 300 | < 300 |
| COc1cc(C(=O)N(C)C)ccc1-c1cc2nccc(-c3ccc(OC4CCOCC4)c(C#N)c3)c2o1 [Compound A117] | – | < 300 | < 300 |
| COc1cc(C(=O)N[C@H]2CCCNC2)ccc1-c1cc2nccc(-c3ccc(OC4CCOCC4)c(C#N)c3)c2o1 [Compound A118] | – | < 300 | < 300 |
| COCCn1cc(-c2cc3nccc(-c4ccc(OC5CCOCC5)c(C#N)c4)c3s2)cn1 [Compound A119] | – | < 300 | < 300 |
| COc1cc(C(=O)N[C@@H]2CCCNC2)ccc1-c1cc2nccc(-c3ccc(OC4CCOCC4)c(C#N)c3)c2o1 [Compound A120] | – | < 300 | < 300 |
